These are literature values, as cited in publication PMC4533831 (Molecular pharmaceutics, 2015).

This data set has as its system IGF2R. Particulars: read-out: relative binding affinity IC50; affinity to IGF2R.

Turning to `O=C[C@@H](O)[C@@H](O)[C@H](O)[C@H](O)COP(=O)(O)O` [M6P, mannose-6-phosphate], the IC50 was 23 µM.

One may read the IC50 as the concentration needed to halve the response being measured.
